From patent US10519159B2, “Antiviral aliphatic ester prodrugs of tenofovir” (Merck Sharp & Dohme Corp., priority 2016, dated 2019)
Like-named read-outs stand apart in the source and are kept apart here.

Experiments:
[1] = Prodrug stability assay in bio-relevant media (FaSSIF with pancreatin), GI tract stability; assay type: in vitro ADME; conditions: Table 1; % parent: HPLC peak area of prodrug at 5 h / 0 h, 0.5 mg/mL pancreatin in FaSSIF, 37° C.
Method: Prodrug Stability Assay in Bio-Relevant Media
The following assay was employed to evaluate the stability of the prodrugs in simulated gastrointestinal tract conditions. Preparation of fasted state simulated intestinal fluid (FaSSIF) using Phares SIF Powder was carried out according to protocols from Phare Drug Delivery AG (Baselland, Switzerland). For sample preparation, 10 μL stock solutions (10 mM) of prodrug substance in DMSO was added to 990 μL of 0.5 mg/mL Pancreatin solution (Fisher CAS #8049-47-6) in FaSSIF. Two samples were prepared for each compound. If the sample was a clear solution, it was directly analyzed by HPLC. If the sample was not clear, the sample was […], maintained at 37° C. and observed 5 h later. If the sample was clear, HPLC analysis was directly performed. If the sample was still not clear, the sample was diluted with 100% ACN and assayed by HPLC. All the samples were vortexed for 3 min and observed before injection. For the diluted samples, the area is multiplied by a dilution factor when the data is analyzed. The analysis was carried out with an Agilent 1100 series HPLC with autosampler. The column was a Poroshell 120 EC-C18, 4.6×50 mm, 2.7 μm. The flow rate was 1.8 mL/min, and the injection volume was 5 or 10 μL. UV detection was in the range 210-400 nm. The mobile phase consisted of solvent A (water plus 10 mM tetrabutylammonium bromide) and solvent B (acetonitrile) with a gradient of: 90% solvent A at 0 min, changing to 95% solvent B over 6 min, maintaining for 1.5 min, then reverting to 90% solvent A over 1.6 min. The HPLC peak area of the prodrug at 5 h was divided by the HPLC peak area of the prodrug at 0 h, to generate the % claimed parent ratio, which is summarized in Table 1 for gastrointestinal (GI) Tract stability.

HIV-1 (H9/IIIB strain) = experiment: Multiple round HIV-1 infection assay (Viking assay) in MT4-GFP cells; assay type: cell-based; conditions: Table 1, MT4-GFP cells infected with HIV-1 H9/IIIB
Method: Assessing Antiviral Potency in a Multiple Round HIV-1 Infection Assay (Viking Assay)
The antiviral activity of the tenofovir prodrugs of the Examples herein was assessed in an assay that measures the rate of replication of HIV in cell culture, termed the Viking assay (Viral KINetics in Green cells) and performed as follows. HIV-1 replication was monitored using MT4-gag-GFP clone D3 (hereafter designated MT4-GFP), which are MT-4 cells modified to harbor a GFP reporter gene, the expression of which is dependent on the HIV-1 expressed proteins tat and rev. Productive infection of an MT4-GFP cell with HIV-1 results in GFP expression approximately 24 h post-infection. MT4-GFP cells were maintained at 37° C./5% CO2/90% relative humidity in RPMI 1640 supplemented with 10% fetal bovine serum, 100 U/ml penicillin/streptomycin, and 400 μg/ml G418 to maintain the reporter gene. For infections, MT4-GFP cells were placed in the same medium lacking G418 and infected overnight with HIV-1 (H9/IIIB strain) virus at an approximate multiplicity of infection of 0.01 in the same incubation conditions. Cells were then washed and re-suspended in either RPMI 1640 supplemented with 10% or 50% normal human serum (NHS) at 1.6×10^5 cells/mL (10% NHS or 50% NHS, respectively). Compound plates were prepared by dispensing compounds dissolved in DMSO into wells of 384 well poly-D-lysine-coated plates (0.2 μl/well) using an ECHO acoustic dispenser. Each compound was tested in a 10-point serial 3-fold dilution (typical final concentrations: 8.4 μM-0.42 nM). Controls included no inhibitor (DMSO only) and a combination of three antiviral agents (efavirenz, indinavir, an in-house integrase strand transfer inhibitor at final concentrations of 4 μM each). Cells were added (50 μL/well) to compound plates and the infected cells were maintained at 37° C./5% CO2/90% relative humidity.
Infected cells were quantified at two time points, ˜48 h and ˜72 h post-infection, by counting the number of green cells in each well using an Acumen eX3 scanner. The increase in the number of green cells over ˜24 h period gives the reproductive ratio, R0, which is typically 5-15 and has been shown experimentally to be in logarithmic phase (data not shown). Inhibition of R0 is calculated for each well, and IC50s determined by non-linear 4-parameter curve fitting.

[2] = 10% normal human serum, read-out: Viking, IC50 (10% NHS)
[3] = 50% normal human serum, read-out: Viking, IC50 (50% NHS)

Structure (SMILES)	GI Tract stability [1]	IC50 (HIV-1 (H9/IIIB strain); [2])	IC50 (HIV-1 (H9/IIIB strain); [3])	IC50 (HIV-1 (H9/IIIB strain); read-out: Viking, IC50 (10% NHS), 10% normal human serum)	IC50 (HIV-1 (H9/IIIB strain); read-out: Viking, IC50 (50% NHS), 50% normal human serum)
CCOC(=O)C1(CCOP(=O)(CO[C@H](C)Cn2cnc3c(N)ncnc32)NC(C)(C)C(=O)OC(C)C)CC1 (single isomer, unassigned) [Example 4B]	99.72%	7.84 nM	22.7 nM	–	–
CCCCCOC(=O)C(C)(C)NP(=O)(CO[C@H](C)Cn1cnc2c(N)ncnc21)OCCC(=O)OC(C)C (single isomer, unassigned) [Example 8A]	92.12%	0.92 nM	11.3 nM	–	–
CCCSC(=O)C(C)(C)NP(=O)(CO[C@H](C)Cn1cnc2c(N)ncnc21)OCCC(=O)OC(C)C (single isomer, unassigned) [Example 13A]	76.99%	5.08 nM	21.9 nM	–	–
CCCOC(=O)C(C)(C)NP(=O)(CO[C@H](C)Cn1cnc2c(N)ncnc21)SCCC(=O)OC(C)C (single isomer, unassigned) [Example 12A]	96.69%	–	–	75.4 nM	322 nM
CCCOC(=O)C(C)(C)NP(=O)(CO[C@H](C)Cn1cnc2c(N)ncnc21)OCc1cccc(C(=O)OC(C)C)c1 (single isomer, unassigned) [Example 14A]	96.71%	1.71 nM	7.58 nM	–	–
CC(C)OC(=O)C[C@H](C)OP(=O)(CO[C@H](C)Cn1cnc2c(N)ncnc21)NC(C)(C)C(=O)OC(C)C (single isomer, unassigned) [Example 10A]	99.75%	11.4 nM	71.7 nM	–	–
CC(C)OC(=O)CCOP(=O)(CO[C@H](C)Cn1cnc2c(N)ncnc21)NC(C)(C)C(=O)OC(C)C (single isomer, unassigned) [Example 2A]	100.30%	22.4 nM	69.8 nM	–	–
